Reference: patent publication US20180326080A1, “POLYMER-BASED THERAPEUTICS FOR INDUCTIVE BROWNING OF FAT” (Purdue Research Foundation, priority 2015, published 2018)

Experiments:
[1] = system: diet induced obese (DIO) mouse model; test: Local injection of DBZ-NPs into inguinal WAT of diet-induced obese mice; format: in vivo; details: in solution and nontargeted NP forms, vs nontreated obese mice
Description: All procedures regarding animal maintenance and experimental use were performed according to the regulation presented by Purdue University's Animal Care and Use Committee. 10-week-old male die-induced obese (DIO) mice with the C57BL/6 background were purchased from Taconic and housed under normal condition at Purdue University. High-fat diet (Research Diets #D12492, 60% fat) was used to induce and maintain obesity in the mice. Mice with average body weight of 36 g at 14 weeks started to receive nanoparticle treatment. […]
For GTT, mice were intraperitoneally injected with 100 mg/ml D-glucose (2 g kg-1 body weight) after 16 h fasting. Blood was drawn from tails and glucose levels were measured by a glucometer (Accu-Check Active, Roche). […] Glucose concentrations were measured in the blood drawn from tails. […]
Serum levels of free fatty acids, glucose, cholesterol, and triglycerides from fasted DIO mice after treatment of nanoparticles for 5 weeks were examined by standard kits from Randox Laboratories. The insulin level in the serum was measured by ELISA according to the manufacturer's instructions (ALPCO). […]
Total RNA was extracted from cells or tissues through Trizol (Life Technologies) in accordance with the manufacture's protocol. […] The quantitative PCR was performed on the Roche Light Cycler 96 PCR System (Roche). […]

[2] = system: cultured white adipocytes; test: Notch inhibition and brown fat gene expression in cultured white adipocytes; format: cell-based; details: vs DMSO
Excerpt: (§1) Pharmacological inhibition of Notch signaling induces browning of white adipocytes during in vitro culture. Notch signaling is inhibited in cultured white adipocytes with the γ-secretase inhibitor DAPT (N—[N-(3,5-difluorophenacetyl)-1-alanyl]-S-phenylglycine t-butyl ester).

[3] = system: cultured white adipocytes; test: Oxygen consumption rate of adipocytes treated with DAPT; format: cell-based; details: vs adipocytes treated with DMSO
Excerpt: as §1

Row | Compound | body weight gain [1] | Notch signaling (mRNA levels of Notch targets) [2] | expression of brown fat specific genes Ucp1, Cidea, Prdm16 and Ppargc1a [2] | oxygen consumption rate (OCR) [3]
1 | CN(CCOc1ccc(CC2SC(=O)NC2=O)cc1)c1ccccn1 (stereo not shown) [Rosi] | no difference in body weight gain |  |  | 
2 | C[C@H](NC(=O)Cc1cc(F)cc(F)c1)C(=O)N[C@H](C(=O)OC(C)(C)C)c1ccccc1 [DAPT, (N—[N-(3,5-difluorophenacetyl)-1-alanyl]-S-phenylglycinet-butyl ester)] |  | inhibited Notch signaling | upregulated | higher
